Results from patent US10842151B2, “Small molecule compound for enhancing plant stress resistance” (SHANGHAI INSTITUTES FOR BIOLOGICAL SCIENCES, CHINESE …, priority 2015, dated 2020).
Values belong to the compound of their own block, whether it stands above or below them.

Columns and labels:
soybean = experiment: Soil drought experiment, soybean; type: in vivo
Description: Only one plant was contained in each pot. All soybean plants were long-day cultured at 26° C. Watering was stopped after the plant had three leaves in each of three groups of leaves and the plants with consistent growth were selected for drought treatment. As for corn, watering was stopped during the small trumpet period for drought treatment. […] After a week, the watering was resumed. Soybeans and cotton used in leaf transpiration experiments for compound 0720B were also used for soil drought experiments. Each pot contained only one plant and was filled with the same weight of soil to reduce experimental errors. All of the soybean plants were grown at 26° C. for long-day culture. 16 days after seeding, watering was stopped and the plants with consistent growth were selected for drought treatment. […] Cotton drought experiments were similar to that of the soybean. 23 days after seeding, the watering was stopped, and the plants with consistent growth were selected for drought treatment. […] After 10 days of drought, the photos were taken.

[1] = test system: PYR/PYL receptors (PYR1, PYL1, PYL2 and PYL7)-HAB1 complex; experiment: Broad spectrum experiment on PYR/PYL receptors (HAB1 phosphatase activity); type: biochemical, Arabidopsis; conditions: 1 μM; for binding ability with PYR1/PYL1/PYL2/PYL7 compared with ABA: FIG. 1, FIG. 13
Description: (§1) HAB1 Phosphatase Activity Assay […] The reaction system was incubated at room temperature for 30 minutes, followed by a further reaction for 30 minutes after adding an 11-amono acid phosphorylated polypeptide as a substrate. The phosphorylated polypeptide consisting of amino acid 170-180 of SnRK2.6 protein kinase (sequence […]) was purchased from […] company, wherein phosphorylated […] was a known HAB1 dephosphorylation target site. After 30 minutes, chromogenic reagent (purchased from BioVision) was added and the absorbance at 650 nm was read on a microplate reader (Molecular Devices).

[2] = test system: PYR1/PYL1/PYL2/PYL7 + HAB1; experiment: AlphaScreen experiment, PYL receptor binding to HAB1; design: species or system Arabidopsis; conditions: AMX: PYR1/PYL1/PYL2/PYL7; 0720B: PYL2 receptor and PYL1 receptor
Description: (§2) After incubating for 1.5 hours at room temperature in the dark, it was placed into an Envision Plate Reader (available from Perkin Elmer) under the programmed AlphaScreen procedure for readings.

cotton [3] = experiment: Soil drought experiment, cotton; type: in vivo; conditions: 50 μM every 4 days; after 10 days of drought
Description: Soybeans and cotton used in leaf transpiration experiments for compound 0720B were also used for soil drought experiments. Each pot contained only one plant and was filled with the same weight of soil to reduce experimental errors. All of the soybean plants were grown at 26° C. for long-day culture. 16 days after seeding, watering was stopped and the plants with consistent growth were selected for drought treatment. […] Cotton drought experiments were similar to that of the soybean. 23 days after seeding, the watering was stopped, and the plants with consistent growth were selected for drought treatment. […] After 10 days of drought, the photos were taken.

soybean Williams 82 = experiment: Soybean leaf transpiration experiment (thermal imaging); type: in vivo
Description: After three weeks of continuous watering, 0.05% tween-20 and corresponding concentrations of DMSO (control)/compound (+)-ABA/0918/1127 were sprayed onto the plants in a single administration with an amount of 1.2 ml/pot. Images were taken daily using the FLIR A655sc thermal imaging camera at the same time before and after spraying. The Williams 82 ecotype was used in soybean leaf transpiration experiments for compounds 0604c, 0918 and 1127 and was long-day cultured at 26° C. After the plants grew and had 3 leaves in each of 3 groups, 0.05% tween-20 and 50 μM DMSO (control)/(+)-ABA/0604c/0918/1127 compounds were sprayed in a single administration with an amount of 4 ml/pot. Images were taken daily using the FLIR A655sc thermal imaging camera at the same time before and after spraying.
(§3) Leaf transpiration experiments of soybean and cotton for compound 0720B were carried out at 26° C. with long-day lighting. 16 days and 23 days after sowing, a solution containing 0.1% tween-20 and corresponding concentration of (+)-ABA, or 0720B compound or 0.1% Tween-20 and 0.05% DMSO (control) was sprayed in an amount of 4 ml/pot. Images were taken daily using the FLIR A655sc thermal imaging camera at the same time before and after spraying.

cotton [4] = experiment: Cotton leaf transpiration experiment (thermal imaging); type: in vivo; conditions: 50 μM; after two days; vs DMSO
Description: as §3

PYL2 + HAB1 [5] = molecular target: T1, PYL2 + HAB1 (Arabidopsis thaliana, UniProt O80992); experiment: AlphaScreen experiment, PYL2 + HAB1; type: binding; conditions: number in brackets; read-out: Half maximum effect concentration EC50 (PYL2 + HAB1)
T1 construct: made in house; host or cells: E. coli BL21 (DE3)
T1 sequence (O80992 14-188 limits assumed): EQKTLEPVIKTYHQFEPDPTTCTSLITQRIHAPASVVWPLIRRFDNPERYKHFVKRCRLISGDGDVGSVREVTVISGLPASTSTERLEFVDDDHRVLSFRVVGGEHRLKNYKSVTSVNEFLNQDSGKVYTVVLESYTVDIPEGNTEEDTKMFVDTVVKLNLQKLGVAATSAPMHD
T1 sequence (Q9CAJ0 172-511 partner limits assumed): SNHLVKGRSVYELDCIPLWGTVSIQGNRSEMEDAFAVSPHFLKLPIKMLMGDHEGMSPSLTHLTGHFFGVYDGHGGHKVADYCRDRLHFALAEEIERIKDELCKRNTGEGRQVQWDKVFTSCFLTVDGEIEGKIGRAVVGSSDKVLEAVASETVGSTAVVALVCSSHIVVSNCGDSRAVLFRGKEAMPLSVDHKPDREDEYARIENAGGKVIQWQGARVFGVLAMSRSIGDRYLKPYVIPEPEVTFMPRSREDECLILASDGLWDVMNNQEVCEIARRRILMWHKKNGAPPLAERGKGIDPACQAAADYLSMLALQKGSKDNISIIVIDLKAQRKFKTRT
Description: as §2

PYL2 + HAB1 [6] = molecular target: T1, PYL2 + HAB1; experiment: HAB1 phosphatase activity assay with PYL2, SnRK2.6 phosphorylated polypeptide substrate; type: biochemical; conditions: PYL2 receptor; same concentration as ABA
Description: as §1

PYL7 + HAB1 = molecular target: T2, PYL7 + HAB1 (Arabidopsis thaliana, UniProt Q1ECF1); experiment: AlphaScreen experiment, PYL7 + HAB1; type: binding; conditions: number in brackets; read-out: Half maximum effect concentration EC50 (PYL7 + HAB1)
T2 construct: made in house; host or cells: E. coli BL21 (DE3)
T2 sequence (Q1ECF1 1-211): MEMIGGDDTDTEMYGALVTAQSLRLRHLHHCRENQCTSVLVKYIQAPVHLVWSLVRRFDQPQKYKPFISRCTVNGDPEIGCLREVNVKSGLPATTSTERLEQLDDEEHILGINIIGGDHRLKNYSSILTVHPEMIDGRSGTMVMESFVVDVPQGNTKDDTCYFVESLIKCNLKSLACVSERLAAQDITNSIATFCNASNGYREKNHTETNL
T2 sequence (Q9CAJ0 172-511 partner limits assumed): T1 sequence (Q9CAJ0 172-511 partner limits assumed)
Description: as §2

[7] = test system: Arabidopsis ABA synthesis defective mutant aba2-1; type: in vivo, Arabidopsis thaliana; conditions: 5 μM sprayed; after 4 days; vs DMSO
PYR1 + HAB1 = molecular target: T3, PYR1 + HAB1 (Arabidopsis thaliana, UniProt O49686); experiment: AlphaScreen experiment, PYR1 + HAB1; type: binding; conditions: column 2; number in brackets; read-out: Half maximum effect concentration EC50 (PYR1 + HAB1)
T3 sequence (O49686 1-191): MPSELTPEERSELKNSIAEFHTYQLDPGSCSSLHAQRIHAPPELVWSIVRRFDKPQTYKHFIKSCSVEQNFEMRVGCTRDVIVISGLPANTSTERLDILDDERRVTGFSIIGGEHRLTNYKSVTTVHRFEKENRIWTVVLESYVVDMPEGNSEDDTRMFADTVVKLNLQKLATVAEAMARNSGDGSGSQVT
T3 sequence (Q9CAJ0 172-511 partner): T1 sequence (Q9CAJ0 172-511 partner limits assumed)
Description: as §2

[8] = test system: Arabidopsis Col-0 ecotype; experiment: Soil drought experiment, Arabidopsis; type: in vivo, Arabidopsis thaliana
Description: Seeds of Arabidopsis Col-0 ecotype were sterilized with NaClO and then sown on ½ MS solid medium at 4° C. for 3 days of vernalization. After 6 days of growing, the well-grown seedlings having uniform size were selected and transferred into 8×7×6 cm^3 pots. Each pot was filled with the same weight of soil and the same number of plants (six plants) was planted to reduce experimental error. All the pots were subjected to a short-day culture at 22° C. After two weeks, watering was stopped for drought treatment. […] The position of the flowerpot was changed every day during the process of drought to reduce the error caused by environmental factors. During the whole drought period, the solution was sprayed twice in total and photos were recorded regularly. The watering was resumed in about three weeks.

maize (corn) = experiment: Soil drought experiment, maize; type: in vivo; conditions: 50 μM; a week of drought
Description: Only one plant was contained in each pot. All soybean plants were long-day cultured at 26° C. Watering was stopped after the plant had three leaves in each of three groups of leaves and the plants with consistent growth were selected for drought treatment. As for corn, watering was stopped during the small trumpet period for drought treatment. […] After a week, the watering was resumed.

[9] = test system: soybean GmPYL3 and GmPYL6 + Arabidopsis AtHAB1; experiment: AlphaScreen experiment with soybean GmPYL receptors; type: binding; conditions: FIG. 9
Description: as §2

[10] = test system: Arabidopsis thaliana Col-0 ecotype seeds; experiment: Seed germination, Col-0; type: in vivo; conditions: 1 μM
Description: (§4) Two lines of plant were sown simultaneously on a single medium of 6 cm diameter, with 15 seeds sown for each line and 4 replicates for each compound. […]

[11] = test system: pyr1;pyl1;pyl4 triple mutant seeds; experiment: Seed germination, PYR/PYL triple mutant; type: in vivo, Arabidopsis thaliana; conditions: 1 μM; six days after seeding
Description: as §4

[12] = test system: ABA-induced environmental stress-related gene expression; experiment: Gene expression analysis (fluorescence quantitative PCR); type: in vivo, Arabidopsis thaliana (Col-0); conditions: one day after treatment; ABA 10 μM
Description: The whole plant or leaves were taken, and RNA extraction was carried out by using conventional methods. After reverse transcription, the fluorescence quantitative PCR was carried out. Triple biological samples were taken for each treatment which was performed twice. The ACT7 gene was used as a reference gene.

binding ability with PYR1/PYL1/PYL2/PYL7 compared with ABA [1]: significantly higher than that of ABA
PYL receptor binding affinity compared with ABA [2]: significantly superior to ABA
EC50 (PYL2 + HAB1 [5]): 30 nM
SMILES: CCCN1C(=O)CC(C)c2cc(NS(=O)(=O)Cc3c(F)c(F)c(C)c(F)c3F)ccc21 (stereo not drawn) [Compound 0720B]
growth after rewatering (soybean; 10 μM, 20 μM or 50 μM every 3 days, rewatered 11 days after drought): significantly better than that of the plants sprayed with DMSO (control) and the plants sprayed with 50 μM ABA
growth (cotton [3]): significantly better than that of the plants sprayed with DMSO (control) and the plants sprayed with 50 μM ABA
leaf temperature (soybean Williams 82; one day after spraying, 10 μM, 20 μM or 50 μM): significantly higher than that of plants in DMSO-sprayed control and that of plants sprayed with 50 μM ABA
leaf temperature (soybean Williams 82; two days after spraying, 0720B 20 μM or 50 μM, ABA 50 μM): significantly higher than that of the DMSO-sprayed control
leaf temperature (cotton [4]): significantly higher than that in plants sprayed with DMSO
inhibition of the dephosphorylation effect of HAB1 on SnRK2.6 phosphorylated polypeptide compared with ABA (PYL2 + HAB1 [6]): significantly better than that of ABA at the same concentration

SMILES: CCCN1C(=O)CCc2cc(NS(=O)(=O)Cc3ccc(C)c(F)c3F)ccc21 [Compound 0918]
growth (soybean; 50 μM, a week of drought, one month after rewatering): grew significantly better than the plants sprayed with DMSO (control) and sprayed with 50 μM ABA
binding to PYR/PYL receptors [1]: could bind with PYR1/PYL1/PYL2/PYL3/PYL4/PYL5/PYL7/PYL10
binding ability with PYR1/PYL1/PYL2/PYL7 compared with ABA [1]: significantly higher than those of ABA
EC50 (PYL7 + HAB1): 20 nM
leaf temperature [7]: still higher than that in the control group
EC50 (PYR1 + HAB1): 20 nM
plant survival ([8]; 5 μM sprayed, 18 days after drought): still survived
drought resistance compared with compound with fewer halogen atoms (0604c) ([8]; same concentration, after 2 weeks of drought, FIG. 8c): stronger drought resistance
survival after rewatering (maize (corn)): Most of the corn sprayed with compound 0918 survived after rewatering
EC50 (PYL2 + HAB1 [5]): 30 nM
affinities for soybean GmPYL proteins compared with ABA [9]: significantly higher affinities
inhibition effect on germination of Col-0 ecotype seeds compared with control compound [10]: significantly better inhibition effect
germination of Col-0 ecotype seeds ([10]; six days after seeding): could still inhibit germination of Col-0 ecotype seeds
germination of pyr1;pyl1;pyl4 triple mutant seeds [11]: could not inhibit germination of PYR/PYL triple mutant pyr1;pyl1;pyl4 seeds
expression level of relevant genes compared with ABA [12]: significantly higher than that in the plants treated with 10 μM ABA
